Values joined by “and” are separate entries in the source; they are usually repeats but may differ in a detail not shown here. Equal values may be shown once. Results filed as inconclusive are left out.
Tested on: HT29 intrarenal xenograft, nude mice, tumor weight change
Experiment: NCI In Vivo Anticancer Drug Screen. Data for tumor model HT29;CX-1 Human Adenocarcinoma (MER+) (intrarenal inoculation) in NU/NU BALB/C (nude) mice
Details: endpoint: mean tumor weight change, higher = larger tumour
Method: The antitumor activity of compounds was measured in mice bearing transplantable tumors. Survival or tumor size were measured and the results are expressed as the measurement made in the treated group (T) divided by the measurement made in the vehicle treated control group (C). The tumor model used in this assay is HT29;CX-1 Human Adenocarcinoma (MER+) (intrarenal inoculation) in NU/NU BALB/C (nude) mice

[1] = dose: 75.0 mg/kg/injection, schedule: Q04DX004 (sc), vehicle: suspension in saline
[2] = dose: 150.0 mg/kg/injection, schedule: Q04DX004 (sc), vehicle: suspension in saline
[3] = dose: 50.0 mg/kg/injection, schedule: Q01DX010 (sc), vehicle: saline with Tween-80
[4] = dose: 100.0 mg/kg/injection, schedule: Q01DX010 (sc), vehicle: saline with Tween-80
[5] = dose: 200.0 mg/kg/injection, schedule: Q01DX010 (sc), vehicle: saline with Tween-80
[6] = dose: 150.0 mg/kg/injection, schedule: Q04DX004 (sc), vehicle: saline
[7] = dose: 300.0 mg/kg/injection, schedule: Q04DX004 (sc), vehicle: saline
[8] = dose: 300.0 mg/kg/injection, schedule: Q04DX004 (sc), vehicle: saline with Tween-80
[9] = dose: 1200.0 mg/kg/injection, schedule: Q04DX004 (sc), vehicle: saline with Tween-80
[10] = dose: 2400.0 mg/kg/injection, schedule: Q04DX004 (sc), vehicle: saline with Tween-80
[11] = dose: 75.0 mg/kg/injection, schedule: Q04DX004 (sc), vehicle: saline with Tween-80
[12] = dose: 150.0 mg/kg/injection, schedule: Q04DX004 (sc), vehicle: saline with Tween-80

## C[C@]12CCC(=O)C(O)=C1CC[C@@H]1[C@@H]2CC[C@]2(C)C(=O)CC[C@@H]12
dose: 150.0 mg/kg/injection, schedule: Q04DX004 (ip), vehicle: Klucel (hydroxypropylcellulose) (HPC)
  T/C: 84 % of control
dose: 300.0 mg/kg/injection, schedule: Q04DX004 (ip), vehicle: Klucel (hydroxypropylcellulose) (HPC)
  T/C: 94 % of control
dose: 600.0 mg/kg/injection, schedule: Q04DX004 (ip), vehicle: Klucel (hydroxypropylcellulose) (HPC)
  T/C: 67 % of control
dose: 1200.0 mg/kg/injection, schedule: Q04DX004 (ip), vehicle: Klucel (hydroxypropylcellulose) (HPC)
  T/C: 84 % of control

## O=C(O)CC(NC(=O)CP(=O)(O)O)C(=O)O (centres undefined)
dose: 25.0 mg/kg/injection, schedule: Q01DX010 (sc), vehicle: saline
  T/C: 123 % of control
dose: 50.0 mg/kg/injection, schedule: Q01DX010 (sc), vehicle: saline
  T/C: 94 % of control
dose: 100.0 mg/kg/injection, schedule: Q01DX010 (sc), vehicle: saline
  T/C: 91 % of control
dose: 200.0 mg/kg/injection, schedule: Q01DX010 (sc), vehicle: saline
  T/C: 70 % of control

## CC12CCC3C(CCC4CC(OC(=O)Cc5ccc(N(CCCl)CCCl)cc5)CCC43C)C1CCC(=O)N2 (centres undefined)
dose: 12.5 mg/kg/injection, schedule: Q04DX004 (sc), vehicle: saline with Tween-80
  T/C: 99 % of control
dose: 25.0 mg/kg/injection, schedule: Q04DX004 (sc), vehicle: saline with Tween-80
  T/C: 109 % of control
dose: 50.0 mg/kg/injection, schedule: Q04DX004 (sc), vehicle: saline with Tween-80
  T/C: 77 % of control
dose: 100.0 mg/kg/injection, schedule: Q04DX004 (sc), vehicle: saline with Tween-80
  T/C: 38 % of control

## CC1CCC(n2cnc3c(Cl)ncnc32)O1 (centres undefined)
dose: 150.0 mg/kg/injection, schedule: Q04DX004 (sc), vehicle: Klucel (hydroxypropylcellulose) (HPC)
  T/C: 76 % of control
dose: 300.0 mg/kg/injection, schedule: Q04DX004 (sc), vehicle: Klucel (hydroxypropylcellulose) (HPC)
  T/C: 80 % of control
dose: 600.0 mg/kg/injection, schedule: Q04DX004 (sc), vehicle: Klucel (hydroxypropylcellulose) (HPC)
  T/C: 64 % of control

## O=C1C=CC(n2cc(F)c(=O)[nH]c2=O)O1 (centres undefined)
dose: 37.5 mg/kg/injection, schedule: Q04DX004 (sc), vehicle: suspension in saline
  T/C: 87 % of control
[1]
  T/C: 88 % of control
[2]
  T/C: 47 % of control

## [Cl][Hg][Cl]
dose: 2.5 mg/kg/injection, schedule: Q04DX004 (ip), vehicle: saline
  T/C: 155 % of control
dose: 5.0 mg/kg/injection, schedule: Q04DX004 (ip), vehicle: saline
  T/C: 68 % of control

## C1OC1CO[C@@H]1CO[C@H]2[C@@H]1OC[C@H]2OCC1CO1 (some centres undefined)
[3]
  T/C: 121 % of control
[4]
  T/C: 64 % of control
[5]
  T/C: 103 % of control

## CNC(=O)ON(C(C)=O)C(=O)NC
dose: 25.0 mg/kg/injection, schedule: Q04DX004 (sc), vehicle: saline
  T/C: 114 % of control
dose: 50.0 mg/kg/injection, schedule: Q04DX004 (sc), vehicle: saline
  T/C: 80 % of control
dose: 100.0 mg/kg/injection, schedule: Q04DX004 (sc), vehicle: saline
  T/C: 56 % of control

## CN(N=O)C(=O)N[C@@H](C=O)[C@@H](O)[C@H](O)[C@H](O)CO
[6]
  T/C: 111 % of control
[7]
  T/C: 38 % of control

## O=C(c1cccnc1)c1cc(-c2ccccn2)c(=O)n2ccccc12
[8]
  T/C: 87 % of control
dose: 600.0 mg/kg/injection, schedule: Q04DX004 (sc), vehicle: saline with Tween-80
  T/C: 21 % of control
[9]
  T/C: 77 % of control
[10]
  T/C: 83 % of control

## O=CC(O)C(O)C(O)C(O)CO (centres undefined)
dose: 75.0 mg/kg/injection, schedule: Q04DX004 (ip), vehicle: saline
  T/C: 195 % of control
dose: 150.0 mg/kg/injection, schedule: Q04DX004 (ip), vehicle: saline
  T/C: 164 % of control
dose: 600.0 mg/kg/injection, schedule: Q04DX004 (ip), vehicle: saline
  T/C: 164 % of control

## OC1(CSc2ccccc2)CCCCC1
[9]
  T/C: 65 % of control
[10]
  T/C: 68 % of control

## CCOC(=O)C(CC(C)C)NC(=O)C(Cc1ccc(N(CCCl)CCCl)cc1)NC(C)=O (centres undefined)
[4]
  T/C: 46 % of control
[5]
  T/C: 2 % of control

## CC(=O)c1cccc(NC2C(N)C(NC(=O)N(C)C)(C(C)O)C(C)(O)C2(O)COC(=O)c2c(C)cccc2O)c1 (centres undefined)
dose: 0.5 mg/kg/injection, schedule: Q04DX004 (ip), vehicle: saline
  T/C: 124 % of control
dose: 1.0 mg/kg/injection, schedule: Q04DX004 (ip), vehicle: saline
  T/C: 93 % of control
dose: 2.0 mg/kg/injection, schedule: Q04DX004 (ip), vehicle: saline
  T/C: 75 % of control
dose: 4.0 mg/kg/injection, schedule: Q04DX004 (ip), vehicle: saline
  T/C: 100 % of control

## COc1nc(=O)n(C2C=CC(=O)O2)cc1F (centres undefined)
[1]
  T/C: 52 % of control
[2]
  T/C: 122 % of control

## CC1=C(O)C(=O)[C@@H]2O[C@@H]2C1=O
dose: 37.5 mg/kg/injection, schedule: Q04DX004 (sc), vehicle: saline
  T/C: 60 % of control

## O=C(Nc1cc(Cl)ccc1C(=O)O)c1cccc(C[n+]2ccccc2)c1
dose: 150.0 mg/kg/injection, schedule: Q04DX004 (ip), vehicle: saline with Tween-80
  T/C: 100 % of control
dose: 300.0 mg/kg/injection, schedule: Q04DX004 (ip), vehicle: saline with Tween-80
  T/C: 123 % of control

## CC(/C=C/c1ccccc1)=Nc1ccccc1
[9]
  T/C: 46 % of control
dose: 1800.0 mg/kg/injection, schedule: Q04DX004 (sc), vehicle: saline with Tween-80
  T/C: 54 % of control

## c1ccc2c(c1)nnn1c3cnccc3nc21
[3]
  T/C: 246 % of control
[4]
  T/C: 65 % of control

## Cc1c(N)nc(C(CC(N)=O)NCC(N)C(N)=O)nc1C(=O)NC(C(=O)NC(C)C(O)C(C)C(=O)NC(C(=O)NCCc1nc(-c2nc(C(=O)NCCCNC(C)c3ccccc3)cs2)cs1)C(C)O)C(OC1OC(CO)C(O)C(O)C1OC1OC(CO)C(O)C(OC(N)=O)C1O)c1cnc[nH]1 (centres undefined)
dose: 4.0 mg/kg/injection, schedule: Q01DX010 (sc), vehicle: saline
  T/C: 11 % of control
dose: 16.0 mg/kg/injection, schedule: Q01DX010 (sc), vehicle: saline
  T/C: 25 % of control

## Cc1ccoc1
dose: 50.0 mg/kg/injection, schedule: Q01DX010 (ip), vehicle: saline with Tween-80
  T/C: 92 % of control
dose: 100.0 mg/kg/injection, schedule: Q01DX010 (ip), vehicle: saline with Tween-80
  T/C: 63 % of control
dose: 200.0 mg/kg/injection, schedule: Q01DX010 (ip), vehicle: saline with Tween-80
  T/C: 90 % of control

## CCC1=C[C@H]2CN(CCc3c([nH]c4ccccc34)[C@@](C(=O)OC)(c3cc4c(cc3OC)N(C)[C@H]3[C@@](O)(C(=O)NC)[C@H](OC(C)=O)[C@]5(CC)C=CCN6CC[C@]43[C@@H]65)C2)C1
dose: 2.0 mg/kg/injection, schedule: Q04DX004 (sc), vehicle: water
  T/C: -17 % of control and 8 % of control
dose: 4.0 mg/kg/injection, schedule: Q04DX004 (sc), vehicle: water
  T/C: -99 % of control

## CCNC(C)(C)C(SSS)c1ccco1 (centres undefined)
[11]
  T/C: 121 % of control
[12]
  T/C: 119 % of control
[8]
  T/C: 91 % of control

## FC(F)(F)c1nc2nc(Cl)c(Cl)nc2[nH]1
[11]
  T/C: 112 % of control
[12]
  T/C: 42 % of control
[8]
  T/C: 71 % of control

## CN=C(NC#N)NCCSCc1nc[nH]c1C
dose: 225.0 mg/kg/injection, schedule: Q04DX004 (sc), vehicle: Klucel (hydroxypropylcellulose) (HPC)
  T/C: 75 % of control
dose: 450.0 mg/kg/injection, schedule: Q04DX004 (sc), vehicle: Klucel (hydroxypropylcellulose) (HPC)
  T/C: 99 % of control
dose: 900.0 mg/kg/injection, schedule: Q04DX004 (sc), vehicle: Klucel (hydroxypropylcellulose) (HPC)
  T/C: 92 % of control

## COc1cc(Cc2nccc3cc(OC)c(OC)cc23)c(C(C)=O)cc1OC
dose: 75.0 mg/kg/injection, schedule: Q04DX004 (sc), vehicle: saline
  T/C: 86 % of control
[6]
  T/C: 84 % of control
[7]
  T/C: 55 % of control
dose: 600.0 mg/kg/injection, schedule: Q04DX004 (sc), vehicle: saline
  T/C: 33 % of control

## CO[C@H]1C[C@](C)(O)Cc2cc3c(c(O)c21)C(=O)c1c(O)cc2c(c1C3=O)O[C@@H]1O[C@@]2(C)[C@H](O)[C@@H](N(C)C)[C@@H]1O
dose: 6.25 mg/kg/injection, schedule: Q01DX010 (sc), vehicle: other
  T/C: 65 % of control
dose: 12.5 mg/kg/injection, schedule: Q01DX010 (sc), vehicle: other
  T/C: 76 % of control

Reference: PubChem BioAssay AID208 (DTP/NCI, 2004)
